A word on the pIC50: it is −log10 of the IC50, conventionally taken in molar units. One may read the fraction unbound as free concentration divided by total concentration.

In series [1] the test system is UDP‐glucuronosyltransferase (UGT)1A3 and 2B7 and cytochrome P450 (CYP)2C9. Particulars: inhibition by eltrombopag of UGT1A3, 2B7 and CYP2C9 (exception CYP1B1); cited from earlier work.
Details of series [2]: method as in earlier work. To be noted: eltrombopag; minimum value of FDA draft guidance when plasma protein binding ≥ 0.99; cited from earlier work.
For series [3] the following is noted: cited from earlier work.
Series [4] is described as follows: Static R value for clinical TrDDI (FDA guidance). Also on record: species or system human. To be noted: eltrombopag victim, pitavastatin perpetrator; versus FDA cut‐offs.
A short description of series [5]: Semimechanistic PBPK model simulation in simulated healthy volunteers. Details: species or system human. Particulars: PBPK model value. From the text: Uptake is inhibited by the opposing drug in X 3 via the respective uptake concentration at half of the maximum uptake velocity (K m.up.X) shown as the inhibition constant (K I.up). Passive movement of drug into and out of the liver is through clearances P dif.X and P def.X, respectively. Both drugs are cleared through biliary excretion (CLbi.X) into the gallbladder (X 5), and into X 2 where they can be reabsorbed.
The micro‐rate constants for transporter‐mediated uptake and passive uptake were scaled to macro‐rate constants (see Table 2 ) and then empirically scaled up to the human body (83 kg, healthy adult; ^23 see Table 2 ).
The ODE PBPK model (see Figure 1 for schematic and Supplemental Material for the set of ODEs) was developed using desolve ^27 in R‐studio (v1.1.463, R‐Studio Inc., Boston, MA) running R‐project version 3.6.0 ^28 and was similar to that used for eltrombopag and rosuvastatin. ^5 All figures in this article were generated either within Inkscape (0.93, Inkscape.org, Boston, MA) or cowplot, ggplot2, ^29 , ^30 extrafont, ^31 and Cairo. ^32

The nature of series [6]: Fraction unbound in hepatocytes, Rapid Equilibrium Dialysis (RED) device. In kind it is in vitro ADME. To be noted: human, heat inactivated hepatocytes, RED device. The method, then: Fraction Unbound in Hepatocytes. The estimation of the fraction unbound in hepatocytes at equilibrium can be obtained using multiple techniques: heat inactivated hepatocytes (3); linear regression obtained using the logD7.4 (4); parameter estimation (1, 3, 5, 6) or as separate binding rate constants determined experimentally (7). […] The RED device works with low volumes across a medium chamber (500 µL, white) and incubation chamber containing the hepatocytes (300 µL, red), and as such has been reported to even out the non-specific binding (NSB) between the membrane and wells, thereby improving recovery (8). The free fraction in the incubation (fu.inc) is calculated as:
fu.inc= [medium chamber] Whiteincubation chamber(Red) . (Eq.S1)
The amount of non-specific binding (NSB) to the labware is important to understand the recovery from the RED device experiment to evaluate the reliability of fu.inc: […]

The structures appear in SMILES notation. pIC50: −log10 of the molar value.

`CC1=NN(c2ccc(C)c(C)c2)C(=O)/C1=N\Nc1cccc(-c2cccc(C(=O)O)c2)c1O` [eltrombopag, Eltrombopag]: the negative-log IC50 (pIC50) in series [1] is 4.70 to 5.70. Besides, the “f u.pl, fraction unbound in the plasma set for static R value” in series [2] is 0.01. In addition, in series [3], the “binding of eltrombopag to plasma proteins” value is reported as 99.8% and the “f u.pl.E, eltrombopag fraction unbound in the plasma” value was 0.002. In addition, the “blood:plasma ratio” value in series [3] (eltrombopag) is recorded as 0.78. For the same compound, in series [4], the “R value, static model” value was “below the cut‐offs”. Moreover, in series [5] (Eqs. 10 and 11), the “CLmet.X, metabolic clearance” value is recorded as 6.8 mL/min/liver. The “CLbi.X, biliary clearance” value in series [5] (Eqs. 12 and 13) is reported as 13 mL/min/liver. Further, in series [6] (overnight, pitavastatin 0.3, 10 and 100 nmol/ml, eltrombopag 30 nmol/ml, read-out: f u.inc, fraction unbound in the incubation), the fraction unbound amounted to 0.04. Further, the recovery in series [6] (read-out: analytical recovery) amounted to 10%.

These data come from publication PMC7179958 (CPT: Pharmacometrics & Systems Pharmacology, 2020).
